Measured values taken from ChEMBL document CHEMBL4665662, “Designed P-glycoprotein inhibitors with triazol-tetrahydroisoquinoline-core increase doxorubicin-induced mortality in multidrug resistant K562/A02 cells” (Bioorg Med Chem, 2019).
The source made the active and inactive calls. The rule behind the calls is not given here.

Columns and labels:
K562/A02 [1] = assay: (§1) Reversal of P-gp mediated multidrug resistance in human K562/A02 cells overexpressing P-gp assessed as fold reduction in doxorubicin IC50 at 5 uM after 48 hrs by MTT assay relative to control; type: cell-based
K562/A02 [2] = assay: Cytotoxicity against human K562/A02 cells overexpressing P-gp assessed as cell growth inhibition after 48 hrs by MTT assay; type: cell-based; details: K562/A02, 48 h
K562 = assay: Cytotoxicity against human K562 cells assessed as cell growth inhibition after 48 hrs by MTT assay; type: cell-based; details: K562, 48 h
K562/A02 [3] = assay: Inhibition of P-gp overexpressed in human K562/A02 cells assessed as increase doxorubicin accumulation at 5 uM preincubated for 60 mins followed by doxorubicin addition and measured after 90 mins by fluorescence spectrophotometry analysis; type: cell-based
K562/A02 [4] = assay: Inhibition of P-gp overexpressed in human K562/A02 cells assessed as increase in doxorubicin accumulation preincubated for 60 mins followed by doxorubicin addition and measured after 90 mins by fluorescence spectrophotometry analysis; type: cell-based; details: dose microM 0.5-5, time 60.0 min
K562/A02 [5] = assay: Effect on P-gp expression in human K562/A02 cells overexpressing P-gp at 0.5 to 5 uM after 72 hrs by Western blot analysis; type: functional, cell-based; details: dose microM 0.5-5, time 72.0 hrs
K562/A02 [6] = assay: Reversal of P-gp mediated multidrug resistance in human K562/A02 cells overexpressing P-gp assessed as inhibition of Rh123 efflux by measuring remaining mean fluorescence intensity at 2 uM pretreated with Rh123 for 60 mins followed by incubation with compound for 90 mins by FACSCalibur flow cytometry analysis; type: cell-based
[7] = Reversal of P-gp mediated multidrug resistance in human K562/A02 cells overexpressing P-gp assessed as potentiation of doxorubicin-induced mortality by measuring reduction in doxorubicin IC50 measured after 48 hrs by MTT assay; type: cell-based; details: K562/A02, 48 h
K562/A02 [8] = assay: as §1, with “uM preincubated for 24 hrs followed by compound washout and 24 hrs later incubated with doxorubicin and measured” for “uM”; type: cell-based
K562/A02 [9] = assay: as §1, with “uM preincubated for 24 hrs followed by compound washout and 12 hrs later incubated with doxorubicin and measured” for “uM”; type: cell-based
K562/A02 [10] = assay: Reversal of P-gp mediated multidrug resistance in human K562/A02 cells overexpressing P-gp assessed as fold reduction in doxorubicin IC50 at 5 uM preincubated for 24 hrs followed by compound washout and 6 hrs later incubated with doxorubicin and measured after 48 hrs by MTT assay relative to control; type: cell-based
K562/A02 [11] = assay: (§2) Reversal of P-gp mediated multidrug resistance in human K562/A02 cells overexpressing P-gp assessed as fold reduction in doxorubicin IC50 at 5 uM preincubated for 24 hrs followed by compound washout and later incubated with doxorubicin and measured after 48 hrs by MTT assay relative to control; type: cell-based
K562/A02 [12] = assay: Inhibition of P-gp overexpressed in human K562/A02 cells assessed as increase in doxorubicin accumulation at 0.1 uM preincubated for 60 mins followed by doxorubicin addition and measured after 90 mins by fluorescence spectrophotometry analysis; type: cell-based
K562/A02 [13] = assay: Reversal of P-gp mediated multidrug resistance in human K562/A02 cells overexpressing P-gp assessed as potentiation of doxorubicin-induced mortality by measuring reduction in doxorubicin IC50 at 10 nM measured after 48 hrs by MTT assay; type: cell-based
K562/A02 [14] = assay: as §2, with “time duration of action for reversal of doxorubicin-induced cytotoxicity” for “fold reduction in doxorubicin IC50”, “assay” for “assay relative to control”; type: cell-based

SMILES | Ratio IC50 (K562/A02 [1]) | IC50 (K562/A02 [2]) [µM] | IC50 (K562; read-out: IC50) [µM] | other results
COc1cc2c(cc1OC)CN(CCn1cc(CNc3ccccc3NC(=O)c3sccc3C)nn1)CC2 | 3.09 | > 100 | – | –
COc1cc2c(cc1OC)CN(CCn1cc(CNc3ccccc3NC(=O)c3cc4ccccc4[nH]3)nn1)CC2 | 4.16 | > 100 | – | –
COc1cc2c(cc1OC)CN(CCc1ccc(-n3cc(CNc4ccccc4NC(=O)c4ccco4)nn3)cc1)CC2 | 11.2 | 58.4 | 25.8 | –
COc1cc2c(cc1OC)CN(CCc1ccc(-n3cc(CNc4ccccc4NC(=O)c4cnc5ccccc5c4)nn3)cc1)CC2 | 3.82 | > 100 | > 100 | –
COc1cc2c(cc1OC)CN(CCn1cc(CNc3ccccc3NC(=O)c3cccs3)nn1)CC2 | 2.03 | > 100 | – | –
COc1cc2c(cc1OC)CN(CCc1ccc(-n3cc(CNc4ccccc4NC(=O)c4cccnc4Cl)nn3)cc1)CC2 | 2.79 | 47 | 42.7 | –
COc1cc2c(cc1OC)CN(CCn1cc(CNc3ccccc3NC(=O)c3ccncc3)nn1)CC2 | 3.74 | > 100 | – | –
COc1cc2c(cc1OC)CN(CCn1cc(CNc3ccccc3NC(=O)c3ccco3)nn1)CC2 | 1.28 | > 100 | – | –
COc1cc2c(cc1OC)CN(CCc1ccc(-n3cc(CNc4ccccc4NC(=O)c4cc5ccccc5[nH]4)nn3)cc1)CC2 | 6.57 | > 100 | > 100 | –
COc1cc2c(cc1OC)CN(CCc1ccc(-n3cc(CNc4ccccc4NC(=O)c4ccsc4C)nn3)cc1)CC2 | 10.9 | 59.6 | > 100 | –
COc1cc2c(cc1OC)CN(CCn1cc(CNc3ccccc3NC(=O)c3cccnc3Cl)nn1)CC2 | 1.28 | > 100 | – | –
COc1ccc(CCN(C)CCCC(C#N)(c2ccc(OC)c(OC)c2)C(C)C)cc1OC (stereo unspecified) | – | 59.2 | – | IC50 (K562): 68.3 µM; inhibition (K562/A02 [3]): Active; inhibition (K562/A02 [4]): Dose-dependent effect
COc1cc2c(cc1OC)CN(CCn1cc(CNc3ccccc3NC(=O)c3ccc(Cl)s3)nn1)CC2 | 3.38 | > 100 | – | –
COc1cc2c(cc1OC)CN(CCc1ccc(-n3cc(CNc4ccccc4NC(=O)c4ccc(Cl)s4)nn3)cc1)CC2 | 42 | 63.2 | > 100 | Activity (K562/A02 [5]): inactive; Activity (K562/A02 [6]): > 50%; EC50 [7]: 46.8 nM; Ratio IC50 (K562/A02 [8]): 1.27; Ratio IC50 (K562/A02 [9]): 3.29; Ratio IC50 (K562/A02 [10]): 7.08; Ratio IC50 (K562/A02 [11]): 17.1; inhibition (K562/A02 [3]): Active; inhibition (K562/A02 [4]): Dose-dependent effect; inhibition (K562/A02 [12]): Active; inhibition (K562/A02 [13]): Active; TIME (K562/A02 [14]): > 24 h
COc1cc2c(cc1OC)CN(CCc1ccc(-n3cc(CNc4ccccc4NC(=O)c4cccs4)nn3)cc1)CC2 | 21.2 | 60.7 | > 100 | –
COc1cc2c(cc1OC)CN(CCc1ccc(-n3cc(CNc4ccccc4NC(=O)c4ccsc4)nn3)cc1)CC2 | 22.8 | 65.9 | > 100 | –
COc1cc2c(cc1OC)CN(CCn1cc(CNc3ccccc3NC(=O)c3ccccn3)nn1)CC2 | 3.88 | > 100 | – | –
COc1cc2c(cc1OC)CN(CCc1ccc(-n3cc(CNc4ccccc4NC(=O)c4ccc5ccccc5n4)nn3)cc1)CC2 | 13.3 | 58.1 | > 100 | –
COc1cc2c(cc1OC)CN(CCn1cc(CNc3ccccc3NC(=O)c3ccc(C)s3)nn1)CC2 | 2.86 | > 100 | – | –
COc1cc2c(cc1OC)CN(CCc1ccc(-n3cc(CNc4ccccc4NC(=O)c4ccncc4)nn3)cc1)CC2 | 1.09 | > 100 | > 100 | –
COc1cccc2c1C(=O)c1c(O)c3c(c(O)c1C2=O)C[C@@](O)(C(=O)CO)C[C@@H]3O[C@H]1C[C@H](N)[C@H](O)[C@H](C)O1 [DOXORUBICIN] | – | 55.5 | – | –
COc1cc2c(cc1OC)CN(CCc1ccc(-n3cc(CNc4ccccc4NC(=O)c4ccc(C)s4)nn3)cc1)CC2 | 21.8 | > 100 | > 100 | –
COc1cc2c(cc1OC)CN(CCc1ccc(-n3cc(CNc4ccccc4NC(=O)c4ccccn4)nn3)cc1)CC2 | 11.8 | 52.1 | 45.1 | –
COc1cc2c(cc1OC)CN(CCc1ccc(NC(=O)c3cc(OC)c(OC)cc3NC(=O)c3cnc4ccccc4c3)cc1)CC2 | 42.3 | 30.1 | 18.4 | Ratio IC50 (K562/A02 [8]): 2.4; Ratio IC50 (K562/A02 [9]): 4.12; Ratio IC50 (K562/A02 [10]): 10.2; Ratio IC50 (K562/A02 [11]): 19.2; inhibition (K562/A02 [4]): Dose-dependent effect
COc1cc2c(cc1OC)CN(CCn1cc(CNc3ccccc3NC(=O)c3ccsc3)nn1)CC2 | 2.27 | > 100 | – | –
